We go through 2 compounds from publication PMC5796108, “Effects of Acanthopanax senticosus on Brain Injury Induced by Simulated Spatial Radiation in Mouse Model Based on Pharmacokinetics and Comparative Proteomics” (International Journal of Molecular Sciences, 2018).

A short description of this data set: Pharmacokinetics of syringin and eleutheroside E in mice's serum after oral AS extract (HPLC, PKsolver). It is filed as in vivo, Kun-Ming mice. The settings on record: oral AS extract 235.7 mg/kg; for MRT inf: read-out: MRT(0→∞). On the procedure:
The radiation lasted 30 min. […] The serum was preserved at −20 °C standby.
The content of syringin and eleutheroside E in the samples for each time points was detected by HPLC. An Agilent 1100 series liquid chromatograph (Agilent Technologies, Santa Clara, CA, USA), equipped with a quaternary gradient pump and a UV detector was used. A HPLC method was developed using a reversed-phase C18 column (Agilent-TC, 250 mm × 4.6 mm, 5 μm i.d.) with the column temperature at 30 °C. […] The retention times are 6.041 min and 8.500 min for Syringin and eleutheroside E respectively. Contents of syringin and eleutheroside E were expressed in each case as nanograms of syringin and eleutheroside E per milliliter of mice serum.

The mark [1] stands for this setting: Radiation-AS-Treatment (60Co-γ, 4 Gy).
Setting [2] is: male, Kun-Ming, mouse, po, 235.7 mg/kg, Normal-AS-Treatment.
Where [3] appears, read: male, Kun-Ming, mouse, po, 235.7 mg/kg, Radiation-AS-Treatment (60Co-γ, 4 Gy).

Each structure is given as a SMILES string. Like-named read-outs stand apart in the source and are kept apart here.

What is called Cmax is the maximum level reached in the sampled fluid or tissue. By Tmax is commonly meant the time at which the peak concentration occurs. As for `COc1cc([C@H]2OC[C@@H]3[C@@H]2CO[C@H]3c2cc(OC)c(O[C@@H]3O[C@H](CO)[C@@H](O)[C@H](O)[C@H]3O)c(OC)c2)cc(OC)c1O[C@@H]1O[C@H](CO)[C@@H](O)[C@H](O)[C@H]1O` [Eleutheroside E], where the note is “Normal-AS-Treatment”, the “AUC(0→∞)” value was 9.93 × 10^3 ± 1.81 × 10^3 ng⋅h⋅mL^−1, the CL was 8.30 × 10^−2 ± 7.32 × 10^−3 L⋅h^−1⋅g^−1, the Cmax is given as 2.07 × 10^3 ± 6.61 × 10^2 ng⋅mL^−1 and the “MRT(0→∞)” value came out at 14.8 ± 0.597 h. For the setting “Normal-AS-Treatment”, the Tmax came to 0.5 ± 0.192 h and the t1/2 turned out to be 17.2 ± 0.722 h. Moreover, under setting [1], the “AUC(0→∞)” value is given as 1.20 × 10^4 ± 3.63 × 10^3 ng⋅h⋅mL^−1, the CL is on record as 6.89 × 10^−2 ± 7.17 × 10^−3 L⋅h^−1⋅g^−1, the Cmax is listed as 2.11 × 10^3 ± 5.93 × 10^2 ng⋅mL^−1 and the “MRT(0→∞)” value was 21.1 ± 0.701 h. For the same compound, under setting [1], the Tmax was determined as 0.5 ± 0.321 h and the t1/2 is on record as 2.51 × 10^1 ± 5.56 × 10^0 h.

The term AUC(0-inf) denotes total exposure, with the tail of the curve extrapolated. A higher AUC(0-inf) goes with high exposure. In general, half-life refers to how long it takes for the measured level to halve. As for `COc1cc(/C=C/CO)cc(OC)c1O[C@@H]1O[C@H](CO)[C@@H](O)[C@H](O)[C@H]1O` [Syringin], for the setting “Normal-AS-Treatment”, the CL is 2.91 × 10^0 ± 5.65 × 10^−1 L⋅h^−1⋅g^−1 and the Vd was 2.72 × 10^1 ± 8.73 × 10^−1 L⋅g^−1. For the same compound, under setting [1], the CL is listed as 1.54 × 10^0 ± 1.86 × 10^−1 L⋅h^−1⋅g^−1, the Tmax is 0.5 ± 0.237 h and the Vd was 2.17 × 10^1 ± 9.19 × 10^−1 L⋅g^−1. Further, the time to peak (Tmax) (male, Kun-Ming, mouse, Normal-AS-Treatment, read-out: Tmax) was found to be 0.5 h. Moreover, under setting [2], the AUC(0-inf) was found to be 283 ng·h/mL, the half-life was 6.47 h and the MRT inf is 4.58 h. For the setting “male, Kun-Ming, mouse, po, 235.7 mg/kg, Normal-AS-Treatment, read-out: Cmax”, the Cmax was 170 ng/mL. Under setting [3], the AUC(0-inf) was found to be 534 ng·h/mL, the half-life was 9.72 h and the MRT inf was 5.95 h. Where the note is “male, Kun-Ming, mouse, po, 235.7 mg/kg, Radiation-AS-Treatment (60Co-γ, 4 Gy), read-out: Cmax”, the Cmax stood at 212 ng/mL.
